Experimental data reported in patent US12258547B2, “Cell culture plate, method for preparing thereof and method for detecting a substance” (UPM-Kymmene Corporation, priority 2019, dated 2025).
Structures can show the parent of a compound that is named as a salt.

Columns and labels:
BJ cells [1] = assay: Previous cytotoxicity data on BJ cells obtained without barriers; format: cell-based; conditions: Homo sapiens, dosed without barriers
Excerpt: The aim was to detect dose-dependent effect by using a concentration that was expected to kill about half of the cells and a concentration two times bigger than that.

BJ cells [2] = assay: Leakage Test 1: 3D-printed barriers, BJ cells outside, chemical dosed inside, WST-1 and microscopy; format: cell-based, Human; conditions: SDS 80 and 40 μg/ml, amitriptyline 20 and 10 μg/ml dosed inside barrier, 24 hrs
Method: It was investigated whether the 3D-printed GrowDex barriers are suitable for their intended use, i.e. to prevent the movement of cells across the barrier but allow the passage of chemicals. In order to test this, BJ cells were seeded outside of the barrier, and chemicals (SDS and Amitriptyline hydrochloride), which are known to be toxic to BJ cells, were applied inside of the barrier. After 24 hrs incubation it was evaluated microscopically whether cells had stayed outside of the barriers and whether the chemical dosed in the middle of the barrier killed the cells outside of the barrier. For quantification of cell viability, WST-1 assay was used. WST-1 assay was selected as it was used previously successfully with manually constructed barriers.
12-Well Plates: 400 μl BJ suspension (100 000 cells/ml) was seeded outside of the barriers (→altogether 40 000 BJ cells), and 100 μl BJ cell culture medium was pipetted inside of the barriers.
24-Well Plates: 200 μl of BJ suspension (100 000 cells/ml) was seeded outside of the barriers (→altogether 20 000 BJ cells), and 50 μl BJ cell culture medium was pipetted inside of the barriers. […]
The plates were incubated for 2.5 hrs before absorbance measurement at 450 nm. The absorbance was measured using multipoint measurement with 49 reads/well in 24-well plates and 81 reads/well in 12-well plates.

[3] = Leakage Test 2: 3D-printed 1.5% GrowDex barriers, BJ cells outside, chemical dosed inside, WST-1; format: cell-based, Human; conditions: human; for viability at 24 h, 100 μg/ml: 100 μg/ml dosed into other side of barrier; for viability at 24 h, 100 μg/ml / viability at 24 h, 200 μg/ml: read-out: Viability % of Control; for viability at 24 h, 200 μg/ml: 200 μg/ml dosed into other side of barrier
Method: (§1) For this purpose, we • decreased the cell number from the 40 000 cells/well that was used in Test 1, to 20 000 cells/well • increased the Amitriptyline concentrations from 10 and 20 μg/ml used in Test 1 to 100 and 200 μg/ml, and the SDS concentrations from 40 and 80 μg/ml used in Test 1 to 100 and 200 μg/ml. [By decreasing cell number and increasing chemical concentration it was aimed to increase the sensitivity of the test, and expect to obtain more (measurable/visible) impacts on cells]. • included following blanks: • 1.5% GrowDex barrier on poly-D-lysine coated wells in BJ cell culture medium and WST-1, but no cells • 1.5% GrowDex barrier in MEM, no coating, no cells • 1.5% GrowDex barrier in PBS, no coating, no cells • In addition, the number of measurements/well in the multipoint absorbance reading was increased from 81 to 225 reads/well in order to get denser coverage of the well.
(§2) 1.5% GrowDex barriers consisting of four layers, were printed on a 12-well plate. For more details on 3D-printing, see Appendix 1. After construction, the barriers were left to dry for 1 hr at room temperature, after which they were covered with MEM. The plate was sealed with parafilm and stored at 4° C. until used.
(§3) The next day after construction of the barriers, BJ fibroblasts were seeded: 400 μl BJ suspension (50 000 cells/ml) was seeded outside of the barriers (→altogether 20 000 BJ cells), and 100 μl BJ cell culture medium was pipetted inside of the barriers. The cells were let to grow for 24 hrs before exposure.
(§4) 2.0 mg/ml stocks were prepared from both Amitriptyline and SDS in BJ cell culture medium with 5% FBS. The stocks were first diluted 1:10 to obtain […] chemical dilution. And the 200 μg/ml chemical dilution was further diluted 1:2 to obtain 100 μg/ml chemical dilution. These dilutions, i.e. 200 and 100 μg/ml were used in the exposure.
(§5) The medium was removed carefully from both inside and outside of the barriers. 400 μl BJ cell culture medium with 5% FBS was pipetted outside of the barrier (where the cells had been seeded on previous day). 100 μl chemical dilution (SDS or Amitriptyline) was pipetted inside of the barriers. The exposure time was 24 hrs.
(§6) After 24 hrs chemical exposure, 10 μl WST-1 reagent was pipetted inside of the barriers, and 100 μl outside of the barriers. The plate was incubated for 30 min, 1.5 hrs and 2.0 hrs before absorbance measurement at 450 nm. The absorbance was measured using multipoint measurement with 225 reads/well.
(§7) In an attempt to quantify the cell viability after different treatments, the mean±STDEV absorbances were calculated using two rows of absorbances that were measured next to the outer edges of the wells. This area was assumed to be outside of the barrier.

BJ fibroblasts = assay: as above; format: cell-based, Human; conditions: 24 hrs, 450 nm
Method: as §1, §2, §3, §4, §5, §6, §7

SH-SY5Y cells = assay: SDS permeability (indirect): cell viability observed microscopically on both sides of barrier; format: cell-based, Human; conditions: 0.4 mg/ml SDS dosed left
Method: Barrier permeability to chemicals was tested by visual inspection using 0.2% Trypan blue, by quantitative measurement using 1 mg/ml fluorescein solution, and by indirect method using sodium dodecyl sulfate (SDS), which is a toxic compound. SDS is a detergent that is known to be toxic to all cell types. […] Circular shaped barriers were prepared in 6-well plates, and straight wall shaped barriers in 24-well plates. SH-SY5Y cells were seeded to the 24-well plate in both sides of the barriers in their normal cell culture medium at the density of 325 000 cells/50 μl. HepG2 cells were seeded to the 6-well plate both inside the barrier circles and outside of them at the density of 107 500 cells/50 μl. Next day 0.4 mg/ml SDS stock was prepared and the cells were exposed to it: SH-SY5Y cells growing on the 24 well plate: 100 μl of 0.4 mg/ml SDS solution was pipetted to the left side of the barrier. 100 μl medium without SDS was pipetted to the right side of the barrier. […] The cell viability was observed microscopically.

HepG2 cells = assay: SDS permeability (indirect): cell viability observed microscopically inside and outside barrier circle; format: cell-based, Human; conditions: 0.4 mg/ml SDS dosed inside circle
Method: Barrier permeability to chemicals was tested by visual inspection using 0.2% Trypan blue, by quantitative measurement using 1 mg/ml fluorescein solution, and by indirect method using sodium dodecyl sulfate (SDS), which is a toxic compound. SDS is a detergent that is known to be toxic to all cell types. […] Circular shaped barriers were prepared in 6-well plates, and straight wall shaped barriers in 24-well plates. SH-SY5Y cells were seeded to the 24-well plate in both sides of the barriers in their normal cell culture medium at the density of 325 000 cells/50 μl. HepG2 cells were seeded to the 6-well plate both inside the barrier circles and outside of them at the density of 107 500 cells/50 μl. Next day 0.4 mg/ml SDS stock was prepared and the cells were exposed to it: HepG2 cells growing on the […]: 400 μl of 0.4 mg/ml SDS solution was pipetted inside the circle, and 400 μl of medium without SDS […] outside of the circle. […] The cell viability was observed microscopically.

[4] = 0.2% Trypan blue permeability through GrowDex barrier, visual inspection; format: physicochemical; conditions: 0.2% dosed to left side
Method: Barriers were prepared in 6-well (circular shaped barriers) and in 24-well (straight wall shaped barriers) plates, and allowed to dry overnight. The barriers were high enough to prevent passage and mixing of the solutions over them. All passage and mixing had to occur through the barriers. Barrier permeability to chemicals was tested by visual inspection using 0.2% Trypan blue, by quantitative measurement using 1 mg/ml fluorescein solution, and by indirect method using sodium dodecyl sulfate (SDS), which is a toxic compound. 400 μl Dulbecco's PBS/well was added to the 24-well plates. The plates were incubated for 1 hour at room temperature to moisturize the GrowDex barrier. The DPBS was removed and replaced with 100 μl 0.2% Trypan blue on the left side of the barrier, and with an equal amount of DPBS on the right side of the barrier.

[5] = 100 μg/ml dosed into other side of barrier
[6] = 200 μg/ml dosed into other side of barrier

| distribution of blue color ([4]; after six hours) | SMILES | IC50 (BJ cells [1]) [µg/mL] | toxicity to BJ cells across 3D-printed barrier (BJ cells [2]) | viability at 24 h, 100 μg/ml [3] [%] | cytotoxicity at 24 h, 100 μg/ml ([3]; 100 μg/ml exposure, across barrier, read-out: reduction in BJ viability) [%] | viability at 24 h, 200 μg/ml [3] [%] | cytotoxicity at 24 h, 200 μg/ml ([3]; 200 μg/ml exposure, across barrier, read-out: reduction in BJ viability) [%] | Mean absorbance, stdev (BJ fibroblasts; [5]) | Mean absorbance, stdev (BJ fibroblasts; [6]) | cell viability, left side of the barrier (dosed side) (SH-SY5Y cells; 24 hours) | cell viability, right side of the barrier (SH-SY5Y cells; 24 hours) | cell viability, both compartments (SH-SY5Y cells; 48 hours) | cell viability inside the GrowDex circle (dosed side) (HepG2 cells; 24 hours) | cell viability outside of the circle (HepG2 cells; 24 hours) | HepG2 cells died outside of the circle (HepG2 cells; 48 hours) | distribution of blue color ([4]; next day) |
| --- | --- | --- | --- | --- | --- | --- | --- | --- | --- | --- | --- | --- | --- | --- | --- | --- |
| – | CN(C)CCC=C1c2ccccc2CCc2ccccc21 [Amitriptyline hydrochloride, 3-(10,11-dihydro-5H-dibenzo[a,d]cycloheptene-5-ylidene)-N,N-dimethylpropan-1-amine] | 12 | not toxic | 90 | 10 | 84 | 16 | 0.911 ± 0.283 | 0.844 ± 0.318 | – | – | – | – | – | – | – |
| – | CCCCCCCCCCCCOS(=O)(=O)[O-].[Na+] [SDS, Sodium Dodecyl Sulfate] | 47 | not toxic | 106 | – | 118 | – | 1.072 ± 0.322 | 1.189 ± 0.406 | all SH-SY5Y cells in the left side of the barrier were dead | cells were dead next to the barrier, but not all over the well | all cells were dead in both compartments | all HepG2 cells were dead inside the GrowDex circle | also outside of the circle next to the GrowDex barrier | about 95% | – |
| absorbed most of the blue color | Cc1cc(-c2ccc(/N=N/c3c(S(=O)(=O)O)cc4cc(S(=O)(=O)O)cc(N)c4c3O)c(C)c2)ccc1/N=N/c1c(S(=O)(=O)O)cc2cc(S(=O)(=O)O)cc(N)c2c1O [Trypan Blue] | – | – | – | – | – | – | – | – | – | – | – | – | – | – | evenly distributed on the both sides of the barrier |
